Measurements reported in patent US20220220100A1 (SOLUTIA CANADA INC., priority 2019, published 2022).

How the values were obtained:
Type in all cases: physicochemical
[1] = Oxidation potential of ring-closed and ring-open isomers; conditions: no unit printed in table (V relative to Ag/AgCl)
Source text: In various embodiments, at a PSS, some of the chromophore will be in the ring-closed isomer, with a small, but non-zero portion of ring-open isomer. The oxidation potential of a ring-open isomer may be more anodic than the oxidation potential of a ring-closed isomer. Exposure to a potential that is too far beyond what is necessary to oxidize the ring-closed isomer may result in oxidation of the ring-open isomer, which may be irreversible and result in electrochemically-induced degradation of the chromophore.
Thus, in various embodiments, an anodic chromophore may have an oxidation potential of from about 0.4 V to 1.2 V for the ring-closed isomer and about 1.0 V to 2.5 V for the ring-open isomer relative to an Ag/AgCl reference electrode. In various embodiments, the oxidation potential for the ring-open isomer is about 250 mV more anodic than the oxidation potential for the ring-closed isomer. For example, the oxidation potential may be about 260 mV, about 280 mV, about 300 mV, about 320 mV, about 340 mV, about 360 mV, about 380 mV, about 400 mV, about 420 mV, about 440 mV, or about 460 mV more anodic than the oxidation potential for the ring-closed isomer.

[2] = Solubility in Rhodiasolv IRIS solvent; conditions: for Solubility in Rhodiasolv IRIS: Rhodiasolv IRIS (dimethyl-2-methyl glutarate), wt %; for Solubility (in words): relative to the methoxy parent chromophore
Source text: A compound with greater solubility allows for a formulation or material with a greater concentration of coloured molecule to be incorporated into a composition. This may allow for increasing the contrast ratio for a compound with a lesser absorbance at PSS. Examples of solubilizing groups for the compound include alkoxy, ether, ester or siloxy groups. In various embodiments, compounds may be soluble in the solvent component at room temperature at about 6 wt %, 7 wt %, 8 wt %, 9 wt %, 10 wt % or greater for testing to determine whether a compound has application as an exterior glazing or optical filter. If the solubility of a compound in the solvent component is too low, then insufficient darkening may be achieved in the ring-closed configuration, depending on conditions of use for the compound.
Chromophore solutions in Rhodiasolv IRIS were prepared at 1 to 10 wt % loading. Solutions were prepared in a glovebox by charging the chromophore and Rhodiasolv IRIS to a trace-clean vial, and the solution was stirred on a hotplate at 90° C. for 2-24 hours. After cooling, the chromophore solution was injected into glass weathering cells and the fill and vent ports were sealed with a thin disc of Kalrez (FFKM Perfluorinated Elastomer) and secured with a clamp and set-screw. The weathering cells were filled and sealed inside the glove box.

[3] = Photostationary state (PSS) and lambda max under simulated sunlight (solar simulator); conditions: for PSS (Steady State): head of Table 3; for PSS (Steady State) / PSS (SS): absorbance at photostationary state, 2×10^−5 M solution; for λmax (nm): peak in the visible range, ring-closed (dark) state; for PSS (SS): simulated sunlight (solar simulator)
Source text: The term “photostationary state” (PSS) refers to an equilibrium state of a compound or material where the rate of the ring closing (forward) reaction is equal to the rate of the ring-opening reaction, when irradiated with light in a given region of the spectrum. In other words, the ratio of the ring-open isomer to the ring-closed isomer is at an equilibrium. PSS may be expressed with reference to a light source, or with reference to a type of light, for example, QUV, Xenon-arc lamp, Q-SUN, natural or filtered sunlight, UV, VIS, IR, NIR, full spectrum or the like, or with reference to a particular wavelength or range of wavelengths, or in the presence or absence of a filter. Some ring-open and ring-closed isomers may undergo isomerization from one to the other in response to different wavelengths of light. If a wavelength of light is used where only one of the isomers absorbs, irradiation results in complete isomerization to the other form. 254 nm, 313 nm or 365 nm light are commonly used in studies of UV-absorbing isomers, but this may not be representative of the PSS under other light conditions that include the visible spectrum such as natural or simulated sunlight (“full spectrum” light) and/or with filters that block a portion of the UV component of the light. For example, in a ring-closed (dark) state, the magnitude of the maximum absorbance in the visible range may change with the light source (FIG. 1). The wavelength at this peak in the visible range may be referred to as lambda max, or λmax. […] When full spectrum light from a solar simulator (Xenon arc lamp) is used as a light source (line B), a balance is achieved between the ring-closed (dark) state induced by the UV component, and a ring-open (faded) state induced by the visible component of the light. Inclusion of a UV blocking layer in the light path (line A) may reduce the UV component of the light, and the ring-opening reaction induced by the visible light component becomes more prominent. […] Where desired, the ratio of ring-open and ring-closed isomers at a PSS may be quantified by ^1H NMR spectroscopy, such as described in U.S. Pat. No. 7,777,055. In various embodiments, compounds with an increased absorbance at a photostationary state (PSS), or increased contrast ratio, are an improvement over other diarylethene compounds. A compound with a greater absorbance in the visible range can be used in lesser quantities in a formulation or material to achieve a desired contrast ratio, whereas a compound with a lower absorbance at a PSS may need a higher concentration to achieve a desired contrast ratio.
Photostationary State (PSS)
(§1) UV/Vis spectra were obtained using an OceanOptics™ Spectrophotometer. A 2×10^−5 M solution of compound in solvent was prepared, and photofaded using visible light until absorption in the visible region of the spectrum stabilized. The sample was then irradiated with simulated sunlight (QSUN SS-150 Solar Simulator with xenon arc lamp) until the absorption spectrum stabilized. To obtain PSS in the presence of a UV blocking film, a second sample was prepared and irradiated as described, with a UV blocking film inserted in the light path when irradiating.

[4] = UV/Vis absorbance at 400 nm and Yellowness Index of the ring-open isomer; conditions: for Abs @ 400 nm, RO (Absorption of ring-open isomer at 400 nm): 2×10^−5 M solution, 1 cm pathlength cuvette
Source text: In addition to the above, chromophores should have acceptable colour for both the ring-opened and ring-closed isomers. For example, the ring-open isomer of the chromophore should have a Yellowness Index (YI) of less than about 10 and an absorbance at 400 nm, as measured for a 2×10^−5 M solution in a 1 cm pathlength cuvette. For the ring-closed isomer of the chromophore, the lambda max should be between about 475 nm and 700 nm, tunable according to desired colour and number of chromophores in the composition.
as §1

| SMILES | RC [O] (oxidation potential of ring-closed isomer) [1] | RO [O] (oxidation potential of ring-open isomer) [1] | Solubility in Rhodiasolv IRIS [2] [%] | PSS (Steady State) [3] | λmax (nm) [3] [nm] | YI (Yellowness Index) [4] | Abs @ 400 nm, RO (Absorption of ring-open isomer at 400 nm) [4] | PSS (SS) [3] | Solubility (in words) [2] |
| --- | --- | --- | --- | --- | --- | --- | --- | --- | --- |
| COc1ccc2c(C3=C(c4cc(-c5ccc(C(C)(C)C)s5)sc4-c4ccc(C(C)(C)C)s4)C(F)(F)C(F)(F)C3(F)F)c(-c3ccc(C(C)(C)C)cc3)oc2c1 | 1 | 1.38 | <3 | 0.255 | 575 | 3.32 | 0.0809 | – | – |
| COc1cc2oc(-c3ccc(C(C)(C)C)cc3)c(C3=C(c4cc(-c5cc6c(s5)C(C)(C)CCC6(C)C)sc4-c4cc5c(s4)C(C)(C)CCC5(C)C)C(F)(F)C(F)(F)C3(F)F)c2cc1OC | 0.91 | 1.29 | <3 | – | 594 | 8.12 | 0.131 | 0.358 | – |
| COCCCOc1cc2oc(-c3ccc(C(C)(C)C)cc3)c(C3=C(c4cc(-c5cc(C(C)(C)C)cs5)sc4-c4cc(C(C)(C)C)cs4)C(F)(F)C(F)(F)C3(F)F)c2cc1OCCCOC | 0.95 | 1.39 | >10 | – | 594 | 4.29 | 0.103 | 0.319 | – |
| CC(C)(C)c1ccc(-c2oc3cc(OCCN4C(=O)CCC4=O)c(OCCN4C(=O)CCC4=O)cc3c2C2=C(c3cc(-c4cc(C(C)(C)C)cs4)sc3-c3cc(C(C)(C)C)cs3)C(F)(F)C(F)(F)C2(F)F)cc1 | 1.05 | 1.42 | >10 | – | 585 | 4.72 | 0.136 | 0.364 | – |
| COc1cc2oc(-c3ccc(C(C)(C)C)cc3)c(C3=C(c4cc(-c5ccc(C(C)(C)C)s5)sc4-c4ccc(C(C)(C)C)s4)C(F)(F)C(F)(F)C3(F)F)c2cc1OC [Chromophore S340, 2-(4-(tert-butyl)phenyl)-3-(2-(5,5″-di-tert-butyl-[2,2′:5′,2″-terthiophen]-3′-yl)-3,3,4,4,5,5-hexafluorocyclopent-1-en-1-yl)-5,6-dimethoxybenzofuran] | 0.95 | 1.35 | 7 | 0.417 | 591 | 5.61 | 0.128 | – | – |
| CC(C)(C)c1ccc(-c2oc3ccccc3c2C2=C(c3cc(-c4ccc(C(C)(C)C)s4)sc3-c3ccc(C(C)(C)C)s3)C(F)(F)C(F)(F)C2(F)F)cc1 [Chromophore S343, 2-(4-(tert-butyl)phenyl)-3-(2-(5,5″-di-tert-butyl-[2,2′:5′,2″-terthiophen]-3′-yl)-3,3,4,4,5,5-hexafluorocyclopent-1-en-1-yl)benzofuran] | 1.1 | 1.37 | <1 | 0.315 | 573 | 4.87 | 0.11 | – | – |
| COc1ccc2oc(-c3ccc(C(C)(C)C)cc3)c(C3=C(c4cc(-c5ccc(C(C)(C)C)s5)sc4-c4ccc(C(C)(C)C)s4)C(F)(F)C(F)(F)C3(F)F)c2c1 [Chromophore S344, 2-(4-(tert-butyl)phenyl)-3-(2-(5,5″-di-tert-butyl-[2,2′:5′,2″-terthiophen]-3′-yl)-3,3,4,4,5,5-hexafluorocyclopent-1-en-1-yl)-5-methoxybenzofuran] | 1.05 | 1.36 | <3 | 0.337 | 583 | 2.91 | 0.1 | – | – |
| COCCOc1cc2oc(-c3ccc(C(C)(C)C)cc3)c(C3=C(c4cc(-c5ccc(C(C)(C)C)s5)sc4-c4ccc(C(C)(C)C)s4)C(F)(F)C(F)(F)C3(F)F)c2cc1OCCOC [Chromophore S364, 2-(4-(tert-butyl)phenyl)-3-(2-(5,5″-di-tert-butyl-[2,2′:5′,2″-terthiophen]-3′-yl)-3,3,4,4,5,5-hexafluorocyclopent-1-en-1-yl)-5,6-bis(2-methoxyethoxy)benzofuran] | 0.93 | 1.32 | >10 | 0.427 | 593 | 4.21 | 0.105 | – | improved |
| CC(=O)Oc1cc2oc(-c3ccc(C(C)(C)C)cc3)c(C3=C(c4cc(-c5ccc(C(C)(C)C)s5)sc4-c4ccc(C(C)(C)C)s4)C(F)(F)C(F)(F)C3(F)F)c2cc1OC(C)=O [Chromophore S367, 2-(4-(tert-butyl)phenyl)-3-(2-(5,5″-di-tert-butyl-[2,2′:5′,2″-terthiophen]-3′-yl)-3,3,4,4,5,5-hexafluorocyclopent-1-en-1-yl)benzofuran-5,6-diyl diacetate] | 1.12 | 1.38 | >10 | 0.32 | 583 | 5.47 | 0.102 | – | improved |
